IC50 data for 49 compounds are collected here from patent US7001921B1, “Cell adhesion inhibitors” (Biogen Idec MA Inc., priority 1995, dated 2006).

Usually IC50 stands for the point on the concentration scale where inhibition reaches its midpoint. Low readings indicate greater potency, high ones weaker potency.

T1 sequence (P13612 34-1032): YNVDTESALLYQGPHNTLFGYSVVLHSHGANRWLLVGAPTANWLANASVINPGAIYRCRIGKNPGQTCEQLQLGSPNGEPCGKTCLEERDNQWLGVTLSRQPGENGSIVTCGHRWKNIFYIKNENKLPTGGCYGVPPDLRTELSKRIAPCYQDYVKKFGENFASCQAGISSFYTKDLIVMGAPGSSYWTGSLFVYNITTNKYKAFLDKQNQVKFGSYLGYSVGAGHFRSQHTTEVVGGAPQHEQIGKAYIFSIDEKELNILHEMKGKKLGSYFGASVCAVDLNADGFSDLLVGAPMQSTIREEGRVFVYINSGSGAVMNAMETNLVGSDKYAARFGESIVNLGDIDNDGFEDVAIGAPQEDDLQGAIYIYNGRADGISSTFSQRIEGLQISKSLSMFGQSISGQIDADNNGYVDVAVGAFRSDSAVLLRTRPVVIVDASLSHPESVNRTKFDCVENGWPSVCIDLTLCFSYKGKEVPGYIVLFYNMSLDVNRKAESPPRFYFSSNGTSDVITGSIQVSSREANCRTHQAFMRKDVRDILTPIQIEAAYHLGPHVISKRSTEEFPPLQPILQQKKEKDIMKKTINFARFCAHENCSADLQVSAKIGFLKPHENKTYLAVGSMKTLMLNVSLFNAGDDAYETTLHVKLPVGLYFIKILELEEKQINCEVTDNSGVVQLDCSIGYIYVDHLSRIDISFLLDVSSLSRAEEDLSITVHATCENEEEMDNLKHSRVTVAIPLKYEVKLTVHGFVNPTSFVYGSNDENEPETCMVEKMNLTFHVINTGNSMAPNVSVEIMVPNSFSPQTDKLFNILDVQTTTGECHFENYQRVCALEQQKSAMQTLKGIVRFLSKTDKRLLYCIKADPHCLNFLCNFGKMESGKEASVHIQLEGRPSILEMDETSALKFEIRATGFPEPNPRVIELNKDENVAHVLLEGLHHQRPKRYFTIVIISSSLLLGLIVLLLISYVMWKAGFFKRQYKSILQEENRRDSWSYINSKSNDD
T1 sequence (P05556 21-798): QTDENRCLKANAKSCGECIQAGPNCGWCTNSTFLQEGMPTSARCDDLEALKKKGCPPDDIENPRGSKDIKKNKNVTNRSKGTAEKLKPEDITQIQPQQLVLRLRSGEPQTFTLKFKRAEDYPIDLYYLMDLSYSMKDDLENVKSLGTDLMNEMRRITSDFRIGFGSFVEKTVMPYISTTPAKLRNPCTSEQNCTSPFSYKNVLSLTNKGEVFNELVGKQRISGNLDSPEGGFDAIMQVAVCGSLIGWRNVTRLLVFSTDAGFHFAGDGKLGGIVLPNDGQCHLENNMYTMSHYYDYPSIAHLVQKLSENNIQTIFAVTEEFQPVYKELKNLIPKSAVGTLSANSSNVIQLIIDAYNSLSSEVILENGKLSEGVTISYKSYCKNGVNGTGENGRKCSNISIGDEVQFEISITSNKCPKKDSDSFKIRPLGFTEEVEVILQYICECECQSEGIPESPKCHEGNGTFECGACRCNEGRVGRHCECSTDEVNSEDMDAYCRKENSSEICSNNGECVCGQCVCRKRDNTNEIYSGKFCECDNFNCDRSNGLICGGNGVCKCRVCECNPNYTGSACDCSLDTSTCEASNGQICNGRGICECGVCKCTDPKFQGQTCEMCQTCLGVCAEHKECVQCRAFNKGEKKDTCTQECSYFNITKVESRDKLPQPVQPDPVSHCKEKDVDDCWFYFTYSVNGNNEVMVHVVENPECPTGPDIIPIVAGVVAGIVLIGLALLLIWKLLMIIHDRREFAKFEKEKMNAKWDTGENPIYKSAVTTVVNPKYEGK

This test has as its target T1, VLA4 (Homo sapiens, UniProt P05556+P13612).
T1 construct: endogenous in cells; host or cells: Ramos cells
The experiment in a line: Inhibition of VLA4-dependent adhesion to BSA-CS1 (labelled Ramos cells). It is filed as cell-based. The note with it: binding of BCECF-AM labelled Ramos cells to CS1 peptide-coated wells, 2 mM MnCl2, 30 minutes at room temperature; IC50 range. The source says: For example, the cell adhesion inhibitory activity of these compounds may be measured by determining the concentration of inhibitor required to block the binding of VLA-4-expressing cells to fibronectin- or CS1-coated plates. In this assay microtiter wells are coated with either fibronectin (containing the CS-1 sequence) or CS-1. If CS-1 is used, it must be conjugated to a carrier protein, such as bovine serum albumin, in order to bind to the wells. Once the wells are coated, varying concentrations of the test compound are then added together with appropriately labelled, VLA-4-expressing cells. Alternatively, the test compound may be added first and allowed to incubate with the coated wells prior to the addition of the cells. The cells are allowed to incubate in the wells for at least 30 minutes. Following incubation, the wells are emptied and washed. Inhibition of binding is measured by quantitating the fluorescence or radioactivity bound to the plate for each of the various concentrations of test compound, as well as for controls containing no test compound.
VLA-4-expressing cells that may be utilized in this assay include Ramos cells, Jurkat cells, A375 melanoma cells, as well as human peripheral blood lymophocytes (PBLs). The cells used in this assay may be fluorescently or radioactively labelled.
This assay was used to assess the potency of VLA4-directed inhibitory compounds of this invention.
We dissolved BSA-SMCC (Pierce Chemical, Rockford, Ill.; Catalog # 77115) in H2O at a concentration of 10 mg/mL. [SEQ ID NO:4]: […](“Cys-Tyr-CS1 peptide”), which we synthesized by conventional solid phase chemistry and purified by HPLC, was dissolved in 10 mM HEPES pH 5, 50 mM NaCl and 0.1 mM EDTA also at a concentration of 10 mg/mL. We then mixed 500 μL of BSA-SMCC, 250 μL of Cys-Tyr-CS1 peptide and 75 μL of […] and allowed the conjugation reaction to proceed for 30 minutes. We stopped the reaction by adding 1 μL of beta-mercaptoethanol. Samples were analyzed for cross-linking by SDS-PAGE. This reaction produced multiple molecules of the Cys-Tyr-CS1 peptide conjugate to each BSA molecule.
We coated the wells of a Linbro titertek polystyrene 96-well flat bottom plate (Flow Laboratories, Maclean, Va.; catalog #76-231-05) with 100 μL of the above-described BSA-CS1 solution diluted to 1 μg/mL in 0.05 M NaHCO3 (15 mM NaHCO3, 35 mM Na2CO3) pH 9.2. Some wells were not coated with CS1 in order to assess non-specific cell binding (NSB). The plate was then incubated overnight at 4° C.
Following this incubation, the contents of the wells were removed by inverting and blotting the plate. All of the wells were then blocked with 100 μL of 1% BSA in PBS, 0.02% NaN3, for a minimum of one hour at room temperature.
3. Preparation of Fluorescently Labelled Ramos Cells Ramos cells are grown, maintained and labelled in RPMI 1640 culture medium containing 1% BSA. Just prior to running the assay, we added 2′,7′-bis-(2-carboxyethyl)5 (and -6) carboxyfluorescein acetoxymethyl ester (“BCECF-AM”; Molecular Probes Inc., Eugene, Oreg.; catalog #B-1150) to a final concentration of 2 μM to a culture of Ramos cells (4×10^6 cells/mL). We incubated the cells for 20 minutes at 37° C.
Following labelling, the cells were washed twice in assay buffer (24 mM TRIS, 137 mM NaCl, 2.7 mM KCl, pH 7.4, containing 0.1% BSA and 2 mM glucose) to remove any cations originating from the culture medium. The cells were then resuspended in assay buffer to 4×10^6 cells/mL and 2 mM MnCl2 was added to upregulate VLA4 on the surface of the cells.
Immediately prior to running the assay, we removed the BSA blocking solution from the 96-well plates and washed the wells with 100 μL of assay buffer. We then added to each well 25 μL of test cell adhesion inhibitory compound at 2× the final concentration and 25 μL of the labelled Ramos cells. Final concentrations were selected across a range of anticipated IC50s, usually between 0.01 nM–10 μM. […]
Turning to `CCNC(=O)Nc1ccc(CC(=O)NC(CC(C)C)C(=O)NC(CC(=O)O)c2ccc3c(c2)OCO3)cc1` (stereo not shown) [compound 1077], the IC50 was 0.05 to 10 µM. For `COc1cccc(NC(=O)Nc2ccc(CC(=O)NC(CC(C)C)C(=O)NC(CC(=O)O)c3ccc4c(c3)OCO4)cc2)c1` (stereo not shown) [compound 1078], the concentration for half-maximal inhibition (IC50) lay in the range of 0.05 to 10 µM. For `COc1ccccc1NC(=O)Nc1ccc(CC(=O)NC(CC(C)C)C(=O)NC(CC(=O)O)c2ccc3c(c2)OCO3)cc1` (stereo not shown) [compound 1079], the IC50 was less than 0.05 µM. For `CC(C)CC(NC(=O)Cc1ccc(NC(=O)Nc2cccnc2)cc1)C(=O)NC(CC(=O)O)c1ccc2c(c1)OCO2` (stereo not shown) [compound 1080] the value was 0.05 to 10 µM; for `CC(C)CC(NC(=O)Cc1ccccc1)C(=O)NC(CC(=O)O)c1ccccc1` (stereo not shown) [compound 1081], 0.05 to 10 µM. Take `CC(C)CC(NC(=O)CCCc1ccccc1)C(=O)NC(CC(=O)O)c1ccccc1` (stereo not shown) [compound 1082]: the IC50 was greater than 10 µM. On to `CC(C)CC(NC(=O)OCc1ccccc1)C(=O)NC(CC(=O)O)c1ccccc1` (stereo not shown) [compound 1085], for which the IC50 was greater than 10 µM. The compound `CC(C)CC(NC(=O)Nc1ccccc1)C(=O)NC(CC(=O)O)c1ccccc1` (stereo not shown) [compound 1086] came in with a half-inhibitory concentration (IC50) of 0.05 to 10 µM. For `CC(C)CC(C(=O)NC(CC(=O)O)c1ccccc1)N(C)C(=O)CCc1ccc(O)cc1` (stereo not shown) [compound 1087] the value was greater than 10 µM. The same measure for `COc1ccc(C(CC(=O)O)NC(=O)C(CC(C)C)NC(=O)Cc2ccc(NC(=O)Nc3ccccc3)cc2)cc1` (stereo not shown) [compound 1088]: less than 0.05 µM; for `COc1ccc(C(CC(=O)O)NC(=O)C(CCSC)NC(=O)Cc2ccc(NC(=O)Nc3ccccc3)cc2)cc1` (stereo not shown) [compound 1089]: less than 0.05 µM. The same measure for `CC(C)CC(NC(=O)Cc1ccc(O)cc1)C(=O)NC(CC(=O)O)c1ccccc1` (stereo not shown) [compound 1091]: 0.05 to 10 µM. The compound `COc1ccc(CC(=O)NC(CC(C)C)C(=O)NC(CC(=O)O)c2ccccc2)cc1` (stereo not shown) [compound 1092] yielded a half-maximal inhibitory concentration (IC50) greater than 10 µM.

As for `CC(C)CC(NC(=O)Cc1ccc([N+](=O)[O-])cc1)C(=O)NC(CC(=O)O)c1ccccc1` (stereo not shown) [compound 1093], the IC50 was greater than 10 µM. The same measure for `CCCCCCC(=O)NC(CC(C)C)C(=O)NC(CC(=O)O)c1ccccc1` (stereo not shown) [compound 1094]: greater than 10 µM; for `CC(C)CC(NC(=O)Cc1ccccc1O)C(=O)NC(CC(=O)O)c1ccccc1` (stereo not shown) [compound 1096]: greater than 10 µM. For `CC(C)CC(NC(=O)Cc1cccc(O)c1)C(=O)NC(CC(=O)O)c1ccccc1` (stereo not shown) [compound 1097] the value was 0.05 to 10 µM. The compound `CC(C)CC(NC(=O)Cc1ccc(O)c(O)c1)C(=O)NC(CC(=O)O)c1ccccc1` (stereo not shown) [compound 1098] returned an IC50 greater than 10 µM.

As for `COc1cc(CC(=O)NC(CC(C)C)C(=O)NC(CC(=O)O)c2ccccc2)c(Br)cc1O` (stereo not shown) [compound 1100], the IC50 was in the range of 0.05 to 10 µM. The same measure for `CC(C)CC(NC(=O)Cc1ccc(NC(=O)OCc2ccccc2)cc1)C(=O)NC(CC(=O)O)c1ccccc1` (stereo not shown) [compound 1101]: greater than 10 µM; for `CC(C)CC(NC(=O)Cc1ccc(N)cc1)C(=O)NC(CC(=O)O)c1ccccc1` (stereo not shown) [compound 1103]: greater than 10 µM. On to `CC(C)CC(NC(=O)Cc1ccc(NS(=O)(=O)c2ccccc2)cc1)C(=O)NC(CC(=O)O)c1ccccc1` (stereo not shown) [compound 1104], for which the IC50 was in the range of 0.05 to 10 µM.

For the compound `CC(C)CC(NC(=O)Cc1ccc(NC(=O)c2ccccc2)cc1)C(=O)NC(CC(=O)O)c1ccccc1` (stereo not shown) [compound 1105], the IC50 was 0.05 to 10 µM. Compound `CC(C)CC(NC(=O)CCCCCNC(=O)Nc1ccccc1)C(=O)NC(CC(=O)O)c1ccccc1` (stereo not shown) [compound 1106] registered an IC50 greater than 10 µM. For `CC(C)CC(NC(=O)CCCCCNC(=O)NC(C)(C)C)C(=O)NC(CC(=O)O)c1ccccc1` (stereo not shown) [compound 1107], the IC50 was greater than 10 µM.

As to `CC(C)CC(NC(=O)Nc1ccc(N)cc1)C(=O)NC(CC(=O)O)c1ccccc1` (stereo not shown) [compound 1109], the IC50 is greater than 10 µM. For `CC(C)CC(NC(=O)Nc1ccc(NC(=O)Nc2ccccc2)cc1)C(=O)NC(CC(=O)O)c1ccccc1` (stereo not shown) [compound 1110] the value was 0.05 to 10 µM; for `COc1cc(CC(=O)NC(CC(C)C)C(=O)NC(CC(=O)O)c2ccccc2)cc(OC)c1O` (stereo not shown) [compound 1111], greater than 10 µM; for `CC(C)CC(NC(=O)Cc1ccc(O)c([N+](=O)[O-])c1)C(=O)NC(CC(=O)O)c1ccccc1` (stereo not shown) [compound 1112], greater than 10 µM. For `CC(C)CC(NC(=O)Cc1cccc([N+](=O)[O-])c1)C(=O)NC(CC(=O)O)c1ccccc1` (stereo not shown) [compound 1113] the value was greater than 10 µM; for `CC(C)CC(C(=O)NC(CC(=O)O)c1ccccc1)N(C)C(=O)Cc1ccccc1` (stereo not shown) [compound 1114], greater than 10 µM; for `CC(C)CC(NC(=O)Cc1ccccc1)C(=O)NC(CC(=O)O)c1ccc(Cl)cc1` (stereo not shown) [compound 1115], 0.05 to 10 µM. `COC(C)C(NC(=O)Cc1ccccc1)C(=O)NC(CC(=O)O)c1ccccc1` (stereo not shown) [compound 1117]: the IC50 was greater than 10 µM. The same measure for `COc1ccc(CC(NC(=O)Cc2ccccc2)C(=O)NC(CC(=O)O)c2ccccc2)cc1` (stereo not shown) [compound 1122]: greater than 10 µM; for `O=C(O)CC(NC(=O)C(CCc1ccccc1)NC(=O)Cc1ccccc1)c1ccccc1` (stereo not shown) [compound 1123]: greater than 10 µM.

Consider `O=C(O)CC(NC(=O)C(COCc1ccccc1)NC(=O)Cc1ccccc1)c1ccccc1` (stereo not shown) [compound 1126], for which the IC50 was greater than 10 µM. `O=C(O)CC(NC(=O)C(CSCc1ccccc1)NC(=O)Cc1ccccc1)c1ccccc1` (stereo not shown) [compound 1127] yielded an IC50 of 0.05 to 10 µM. The same measure for `CC(C)CC(NC(=O)Cc1ccc(NC(=O)Nc2ccccc2)cc1)C(=O)NC(CC(=O)O)c1ccc2c(c1)CCC2` (stereo not shown) [compound 1128]: 0.05 to 10 µM; for `O=C(O)CC(NC(=O)C(Cc1ccccc1)NC(=O)Cc1ccc(NC(=O)Nc2ccccc2)cc1)c1ccc2c(c1)OCO2` (stereo not shown) [compound 1129]: 0.05 to 10 µM; for `O=C(O)CC(NC(=O)C(Cc1ccccc1)NC(=O)Cc1ccc(NC(=O)Nc2ccccc2)cc1)c1ccccc1` (stereo not shown) [compound 1130]: 0.05 to 10 µM. `CCC(C)C(NC(=O)Cc1ccc(NC(=O)Nc2ccccc2)cc1)C(=O)NC(CC(=O)O)c1ccccc1` (stereo not shown) [compound 1131] registered an IC50 of 0.05 to 10 µM. The same measure for `O=C(O)CC(NC(=O)C(CCCCNC(=O)OCc1ccccc1)NC(=O)Cc1ccc(NC(=O)Nc2ccccc2)cc1)c1ccccc1` (stereo not shown) [compound 1132]: 0.05 to 10 µM. The same measure for `CCC(C)C(NC(=O)Cc1ccc(NC(=O)Nc2ccccc2)cc1)C(=O)NC(CC(=O)O)c1ccc2c(c1)OCO2` (stereo not shown) [compound 1133]: 0.05 to 10 µM; for `CC(C)(C)OC(=O)NCC(NC(=O)Cc1ccc(NC(=O)Nc2ccccc2)cc1)C(=O)NC(CC(=O)O)c1ccccc1` (stereo not shown) [compound 1134]: 0.05 to 10 µM; for `CSCCC(NC(=O)Cc1ccc(NC(=O)Nc2ccccc2)cc1)C(=O)NC(CC(=O)O)c1ccccc1` (stereo not shown) [compound 1135]: less than 0.05 µM. The same measure for `NCC(NC(=O)Cc1ccc(NC(=O)Nc2ccccc2)cc1)C(=O)NC(CC(=O)O)c1ccccc1` (stereo not shown) [compound 1138]: 0.05 to 10 µM. In turn, `NCCCCC(NC(=O)Cc1ccc(NC(=O)Nc2ccccc2)cc1)C(=O)NC(CC(=O)O)c1ccccc1` (stereo not shown) [compound 1139] registered an IC50 of 0.05 to 10 µM. For `CC(C)CC(NC(=O)Cc1ccc(O)cc1)C(=O)NC(CC(=O)O)Cc1ccccc1` (stereo not shown) [compound 1143] the value was greater than 10 µM; for `CC(C)CC(NC(=O)Cc1ccc(O)cc1)C(=O)NC(CC(=O)O)c1ccccc1` (stereo not shown) [compound 1144], 0.05 to 10 µM.
